{"source": "patent US5776859A", "about": "“Sodium channel active novel compounds and related processes and bioassay techniques” (priority 1995, dated 1998)", "key": {"mice": {"system": "mice", "conditions": "cited from earlier work"}, "rats": {"system": "rats", "conditions": "cited from earlier work"}, "[1]": {"system": "Salmonella strains TA98, TA100, TA1535 and TA97", "conditions": "cited from earlier work"}, "Fischer rats": {"system": "Fischer rats", "conditions": "cited from earlier work"}, "B6C3FI mice": {"system": "B6C3FI mice", "conditions": "cited from earlier work"}, "[2]": {"conditions": "cardiac patients, routine therapeutic administration of lidocaine; cited from earlier work"}, "sodium channel": {"system": "sodium channel", "assay": "Temperature-dependent circular dichroism at 222 nM (helix-coil transition)", "format": "biochemical, beef (bovine brain)", "conditions": "222 nm wavelength; for % Loss of Helix (35° to 40° C.) / % Loss of Helix (30° to 35° C.): fresh AChE; for % Loss of Helix (35° to 40° C.): control 4.7 (pilocarpine), 4.6 (lidocaine); for % Loss of Helix (30° to 35° C.): control 21.8 (pilocarpine), 12.1 (lidocaine); for effect on alpha helix from 35° C. to 40° C. / effect on helical transition normally observed between 30°-35° C.: beef brain nerve cell protein preparation; for effect on helical transition normally observed between 30°-35° C.: 15° C. to 60° C.", "from_the_text": "As disclosed in PCT/US93/05792, published Jan. 6, 1994, one can identify compounds with potential analgesic effect by using circular dichroism to bioassay the interaction of molecules with ion channels, including sodium channels. Likewise, this bioassay technique is applicable to the thiophene compounds of the present invention.\nTo perform this method, solubilized nerve cell membrane proteins and acetylcholinesterase are purified using ion exchange and size exclusion chromatography. Then, one forms a mixture of a nerve cell protein and a compound capable of blocking or preventing the normal function of preferably the sodium channel in an excitable cell, and subjects that mixture to circular dichroism at a wave length of […] wave length. The transition of molar ellipticity is measured while varying the temperature of the mixture between 25°-50° C. The transition of molar ellipticity of the mixture is compared with the transition of molar ellipticity of a control nerve cell protein without the compound capable of blocking or preventing the normal function of the sodium channel in an excitable cell. The alpha helix content, as measured at […], is used to monitor the effect of temperature change on the ion channel's conformational change.\nHowever, when a sodium channel active molecule is added to the membrane preparation, the temperature-dependent helix transition observed using circular dichroism is altered. […] These compounds, therefore, seem to stabilize the helix conformation of the sodium channel and to prevent the temperature-dependent uncoiling of alpha helix between 30° C.-35° C."}, "animal": {"system": "animal", "conditions": "in vivo; cited from earlier work"}, "[3]": {"conditions": "surviving female mice, relative to controls"}}, "note": "Like-named read-outs stand apart in the source and are kept apart here.", "data": [{"smiles": "Cc1ccccc1N.Cl", "note": "[ortho-toluidine hydrochloride]", "values": [{"measurement": "carcinogenicity", "setting": "mice", "result": "carcinogenic in rats and mice"}, {"measurement": "carcinogenicity", "setting": "rats", "result": "carcinogenic in rats and mice"}]}, {"smiles": "c1ccsc1", "note": "[thiophene]", "values": [{"measurement": "mutagenicity", "setting": "[1]", "result": "does not function as a mutagen in this assay"}, {"measurement": "absolute lung weight and lung to brain weight ratio", "setting": "Fischer rats; all dose groups of both sexes surviving until study termination", "result": "decrease in the absolute lung weight and in the lung to brain weight ratio"}, {"measurement": "mortality", "setting": "Fischer rats; male rats, 2000 and 4000 ppm, first week", "result": "mortality also occurred in the 2000 and 4000 ppm male exposure groups"}, {"measurement": "group mean body weight", "setting": "Fischer rats; rats of both sexes, relative to control", "result": "dose-related depression in group mean body weight relative to control"}, {"measurement": "clinical signs of toxicity", "setting": "Fischer rats; rats, 4000 ppm", "result": "rough haircoat, ocular discharge, nasal discharge, dyspnea, and staggering gait"}, {"measurement": "microscopic examination, lung", "setting": "Fischer rats; rats, 4000 ppm", "result": "chronic active inflammation of the lung"}, {"measurement": "mortality", "setting": "Fischer rats; rats, 8000 ppm, one exposure", "result": "All rats exposed to 8000 ppm died following one exposure"}, {"measurement": "microscopic examination, liver", "setting": "Fischer rats; rats, all exposure groups, severity increasing with dose", "result": "necrotizing inflammation of the liver in all exposure groups with severity increasing with dose"}, {"measurement": "toxicity to liver and lung", "setting": "Fischer rats; summary of rat and mice studies, extremely high inhalation doses", "result": "shows toxicity to liver and lung"}, {"measurement": "survival", "setting": "B6C3FI mice; female mice, 1000 ppm and 500 ppm", "result": "survived the study"}, {"measurement": "female mice died as a result of exposures", "setting": "B6C3FI mice; female mice, 2000 ppm", "result": "2/10"}, {"measurement": "mortality", "setting": "B6C3FI mice; female mice, 8000 ppm and 4000 ppm", "result": "Total mortality"}, {"measurement": "survival / mortality", "setting": "B6C3FI mice; male mice, all exposure levels, single exposure", "result": "died or were terminated in moribund condition following a single exposure"}, {"measurement": "microscopic pathology, hepatocytes", "setting": "B6C3FI mice; mice that died early (within several hours after first exposure)", "result": "centrilobular degeneration of hepatocytes"}, {"measurement": "microscopic pathology, cause of mortality", "setting": "B6C3FI mice; mice", "result": "mortality was attributed to liver toxicity"}, {"measurement": "other exposure-related microscopic lesions", "setting": "B6C3FI mice; mice", "result": "No other exposure-related microscopic lesions were found"}, {"measurement": "microscopic pathology, nose and nasal cavity", "setting": "B6C3FI mice; mice, more severe in mice that survived the study", "result": "Necrotizing inflammation of the nose and nasal cavity"}, {"measurement": "liver absolute and relative organ weights (liver-to-body and liver-to-brain weight ratios)", "setting": "B6C3FI mice; [3]", "result": "increased relative to the controls"}, {"measurement": "thymus organ weight parameters", "setting": "B6C3FI mice; [3]", "result": "reduced"}, {"measurement": "mean body weights or mean lung weights", "setting": "B6C3FI mice; surviving female mice", "result": "did not affect mean body weights or mean lung weights"}, {"measurement": "signs of toxicity", "setting": "B6C3FI mice; surviving mice, 500 ppm and 1000 ppm", "result": "hypoactivity and abnormal posture"}, {"measurement": "signs of toxicity", "setting": "B6C3FI mice; surviving mice, 2000 ppm", "result": "dyspnea"}, {"measurement": "microscopic pathology, hepatocytes", "setting": "B6C3FI mice; surviving mice, all exposure levels", "result": "centrilobular necrosis of hepatocytes"}]}, {"smiles": "CCN(CC)CC(=O)Nc1c(C)cccc1C", "note": "[Lidocaine]", "values": [{"measurement": "2,6-xylidine in human serum hemoglobin adduct", "setting": "[2]", "result": "high levels of 2,6-xylidine"}, {"measurement": "% Loss of Helix (35° to 40° C.)", "setting": "sodium channel", "result": 13.6, "unit": "%"}, {"measurement": "% Loss of Helix (30° to 35° C.)", "setting": "sodium channel", "result": 1.8, "unit": "%"}, {"measurement": "effect on alpha helix from 35° C. to 40° C.", "setting": "sodium channel", "result": "the alpha helix uncoils to equal the helix in the control sample"}, {"measurement": "effect on helical transition normally observed between 30°-35° C.", "setting": "sodium channel", "result": "prevented the helical transition normally observed between 30°-35 °C"}]}, {"smiles": "CC[C@@H]1C(=O)OC[C@@H]1Cc1cncn1C", "note": "[Pilocarpine]", "values": [{"measurement": "% Loss of Helix (35° to 40° C.)", "setting": "sodium channel", "result": 17.5, "unit": "%"}, {"measurement": "% Loss of Helix (30° to 35° C.)", "setting": "sodium channel", "result": 7.1, "unit": "%"}, {"measurement": "effect on alpha helix from 35° C. to 40° C.", "setting": "sodium channel", "result": "the alpha helix uncoils to equal the helix in the control sample"}, {"measurement": "effect on helical transition normally observed between 30°-35° C.", "setting": "sodium channel", "result": "prevented the helical transition normally observed between 30°-35 °C"}]}, {"smiles": "Cc1cccc(C)c1N", "note": "[2,6-xylidine]", "values": [{"measurement": "carcinogenicity", "setting": "animal", "result": "established animal and probable human carcinogen"}]}]}
